Source: patent publication US8299214B2 (priority 2006, dated 2012)
Like-named read-outs stand apart in the source and are kept apart here. Residues, ends and D or L forms follow the SMILES beside them. *: point of attachment. Stearoyl = CCCCCCCCCCCCCCCCCC(=O)*

Legend:
[1] = system: influenza virus A/Puerto Rico/8/34 strain (H1N1)
[2] = system: influenza virus A/Aichi/2/68 strain (H3N2)
[3] = influenza virus A/Puerto Rico/8/34 strain
[4] = influenza virus A/Aichi/2/68 strain
[5] = read-out: IC50(μM) H1, Table 4, MDCK cells, plaque assay, H1N1
[6] = read-out: IC50(μM) H3, Table 4, MDCK cells, plaque assay, H3N2

SMILES | IC50 [1, 3] [µM] | IC50 [2, 4] [µM] | inhibition of H1N1 influenza virus infection (in words) ([1]; MDCK cells, plaque assay) | IC50 [1, 5] [µM] | inhibition of H3N2 influenza virus infection (in words) ([2]; MDCK cells, plaque assay) | IC50 [2, 6] [µM] | IC50 ([1]; read-out: IC50(μM) H1, Table 5, MDCK cells, plaque assay, H1N1) [µM] | IC50 ([2]; read-out: IC50(μM) H3, Table 5, MDCK cells, plaque assay, H3N2) [µM]
CCCCCCCCCCCCCCCCCC(=O)N[C@@H](C)C(=O)N[C@@H](CCCNC(=N)N)C(=O)N[C@@H](CC(C)C)C(=O)N[C@@H](CO)C(=O)N1CCC[C@H]1C(=O)N[C@H](C(=O)N[C@@H](CCSC)C(=O)N[C@H](C(=O)N[C@@H](Cc1c[nH]cn1)C(=O)N1CCC[C@H]1C(=O)N[C@@H](CC(N)=O)C(=O)NCC(=O)N[C@@H](C)C(=O)N[C@@H](CCC(N)=O)C(=O)N1CCC[C@H]1C(N)=O)C(C)C)[C@@H](C)O [C18-A1, C18-ARLSPTMVHPNGAQP, reference compound] (Stearoyl-ARLSPTMVHPNGAQP-NH2) | 195 | 365 |  |  |  |  |  | 
CCCCCCCCCCCCCCCCCC(=O)N[C@@H](C)C(=O)N[C@@H](CCCNC(=N)N)C(N)=O [C18-s2(1-2), C18-AR] (Stearoyl-Ala-Arg-NH2) |  |  | unable to inhibit infection | > 100 | unable to inhibit infection | > 100 |  | 
CCCCCCCCCCCCCCCCCC(=O)N[C@@H](C)C(=O)N[C@@H](CCCNC(=N)N)C(=O)N[C@@H](CC(C)C)C(N)=O [C18-s2(1-3), C18-ARL] | > 100 | > 100 | unable to inhibit infection |  | unable to inhibit infection |  |  | 
CCCCCCCCCCCCCCCCCC(=O)N[C@@H](C)C(=O)N[C@@H](CCCNC(=N)N)C(=O)N[C@@H](CC(C)C)C(=O)N1CCC[C@H]1C(N)=O [C18-s2(1-4), C18-ARLP] (Stearoyl-ARLP-NH2) | 0.9 | 21 | more strongly than C18-S2 peptide |  | as strongly as, or more strongly than, C18-S2 peptide |  |  | 
CCCCCCCCCCCCCCCCCC(=O)N[C@@H](C)C(=O)N[C@@H](CCCNC(=N)N)C(=O)N[C@@H](CC(C)C)C(=O)N[C@@H](C)C(N)=O [C18-s2(1-4)P4A, C18-ARLA] (Stearoyl-ARLA-NH2) | > 100 | > 100 |  |  |  |  |  | 
CCCCCCCCCCCCCCCCCC(=O)N[C@@H](C)C(=O)N[C@@H](CCCNC(=N)N)C(=O)N[C@@H](CC(C)C)C(=O)N1CCC[C@H]1C(=O)N[C@@H](CCCNC(=N)N)C(N)=O [C18-s2(1-5), C18-ARLPR] (Stearoyl-ARLPR-NH2) |  |  | more strongly than C18-S2 peptide | 3.1 | as strongly as, or more strongly than, C18-S2 peptide | 3 | 0.35 | 1.55
CCCCCCCCCCCCCCCCCC(=O)N[C@@H](C)C(=O)N[C@@H](CCCNC(=N)N)C(=O)N[C@@H](CC(C)C)C(=O)N1CCC[C@H]1C(=O)N[C@@H](CCCNC(=N)N)C(=O)N[C@H](C(N)=O)[C@@H](C)O [C18-s2(1-6), C18-ARLPRT] (Stearoyl-ARLPRT-NH2) |  |  | more strongly than C18-S2 peptide | 3.5 | as strongly as, or more strongly than, C18-S2 peptide | 5 |  | 
CCCCCCCCCCCCCCCCCC(=O)N[C@@H](CC(C)C)C(=O)N1CCC[C@H]1C(=O)N[C@@H](CCCNC(=N)N)C(=O)N[C@H](C(=O)N[C@@H](CCSC)C(=O)N[C@H](C(N)=O)C(C)C)[C@@H](C)O [C18-s2(3-8), C18-LPRTMV] (Stearoyl-LPRTMV-NH2) | > 100 |  |  |  |  |  |  | 
CCCCCCCCCCCCCCCCCC(=O)N1CCC[C@H]1C(=O)N[C@@H](CCCNC(=N)N)C(=O)N[C@H](C(=O)N[C@@H](CCSC)C(=O)N[C@H](C(N)=O)C(C)C)[C@@H](C)O [C18-s2(4-8), C18-PRTMV] (Stearoyl-PRTMV-NH2) | > 100 |  |  |  |  |  |  | 
